Experimental data: US7816566B2, “p-Menthan-3-ol alkylated derivatives and their use as refreshing agents” (Robertet S.A., priority 2004, dated 2010)
Where two headings read alike, the source gives them in different places.

Assays:
[1] = cited from earlier work; for refreshing effect: prior art
[2] = refreshing effect in a mouthwash flavouring composition; type: in vivo; conditions: approximately 0.2 g per litre of prepared mouthwash
Excerpt: Approximately 0.2 g of (−)-(1R,3R,4S)-3-hydroxy-p-menthane-3-methanol is used per litre of prepared mouthwash.

[3] = refreshing effect in boiled sweets; type: in vivo; conditions: 0.2 g per kilogramme of final product
Experimental: A solution of saccharose (350 g) in water (110 g) is prepared which is boiled at 107° C. 150 g of glucose syrup is added and boiled at 148° C. The flavouring, citric acid and colouring agent are added at a temperature of approximately 120°, and 0.2 g of (−)-(1R,3R,4S)-3-hydroxy-p-menthane-3-methanol is added per kilogramme of final product.

[4] = organoleptic evaluation of the compounds: refreshing effect, bitterness, odour; type: in vivo; conditions: sensation of freshness, intensity in words
[5] = hydrophilic nature of the compound; type: physicochemical
[6] = refreshing effect in a tobacco flavouring composition; type: in vivo; conditions: approximately 0.05 g per kilogram of tobacco
Excerpt: Approximately 0.05 g of (−)-(1R,3R,4S)-3-hydroxy-p-menthane-3-[…] is used per kilogram of tobacco.

[7] = prior art; cited from earlier work

| Structure (SMILES) | melting point | refreshing effect [4] | also measured |
| --- | --- | --- | --- |
| CC1=C(N2CCCC2)C(=O)OC1 [4-methyl-3-(1-pyrrolidinyl)-2[5H]furanone] | – | – | refreshing effect [1]: very intense refreshing effect |
| CC(C)[C@@H]1CC[C@@H](C)C[C@]1(O)CO [2a, (−)-(1R,3R,4S)3-hydroxy-p-menthane-3-methanol] | 80 to 82 °C | – | refreshing effect [2]: A refreshing effect is obtained; refreshing effect [3]: A very distinct refreshing effect is obtained |
| CNC(=O)C(C)(C(C)C)C(C)C [2-isopropyl-N,2,3-trimethylbutyramide] | – | – | refreshing effect [1]: very active |
| CC(C)[C@@H]1CC[C@@H](C)C[C@@]1(O)C(C)CO (some centres unmarked) [compound 4] | – | reduced intensity | – |
| CC(C)[C@@H]1CC[C@@H](C)C[C@]1(O)CCO [1b, (−)-(1R,3S,4S)-3-hydroxy-p-menthane-3-ethanol] | 84 to 86 °C | – | – |
| CC(C)[C@@H]1CC[C@@H](C)C[C@]1(CO)OCCO [compound 11] | – | not endowed with a particularly intense refreshing effect | – |
| CC(O)C[C@]1(O)C[C@H](C)CC[C@H]1C(C)C (some centres unmarked) [compound 5] | – | reduced intensity | – |
| CC(C)[C@@H]1CC[C@@H](C)C[C@]1(O)C(O)CO (stereo partly drawn) [compound 3, (1R,3R,4S)-3-hydroxy-p-menthane-3-(ethane-1,2-diol)] | – | intense | hydrophilic nature [5]: hydrophilic |
| CC(C)[C@@H]1CC[C@@H](C)C[C@@]1(O)CCO [1a, (−)-(1R,3R,4S)-3-hydroxy-p-menthane-3-ethanol] | 80 to 82 °C | – | refreshing effect [6]: A refreshing effect is obtained |
| CC(C)[C@@H]1CC[C@@H](C)C[C@@]1(O)CO [2b, (−)-(1R,3S,4S)-3-hydroxy-p-menthane-3-methanol] | 48 to 50 °C | – | – |
| CC(C)[C@@H]1CC[C@@H](C)C[C@H]1O [l-menthol] | – | – | volatility [7]: too high volatility; burning sensation ([1]; when used at a high concentration): can cause a burning sensation |
| CC(C)[C@@H]1CC[C@@H](C)C[C@@]1(O)CC(C)(C)O [compound 6] | – | reduced intensity | – |
